In data set [1] the target is T1, Acetylcholinesterase (Bos taurus, UniProt P23795).
T1 sequence (P23795 whole entry): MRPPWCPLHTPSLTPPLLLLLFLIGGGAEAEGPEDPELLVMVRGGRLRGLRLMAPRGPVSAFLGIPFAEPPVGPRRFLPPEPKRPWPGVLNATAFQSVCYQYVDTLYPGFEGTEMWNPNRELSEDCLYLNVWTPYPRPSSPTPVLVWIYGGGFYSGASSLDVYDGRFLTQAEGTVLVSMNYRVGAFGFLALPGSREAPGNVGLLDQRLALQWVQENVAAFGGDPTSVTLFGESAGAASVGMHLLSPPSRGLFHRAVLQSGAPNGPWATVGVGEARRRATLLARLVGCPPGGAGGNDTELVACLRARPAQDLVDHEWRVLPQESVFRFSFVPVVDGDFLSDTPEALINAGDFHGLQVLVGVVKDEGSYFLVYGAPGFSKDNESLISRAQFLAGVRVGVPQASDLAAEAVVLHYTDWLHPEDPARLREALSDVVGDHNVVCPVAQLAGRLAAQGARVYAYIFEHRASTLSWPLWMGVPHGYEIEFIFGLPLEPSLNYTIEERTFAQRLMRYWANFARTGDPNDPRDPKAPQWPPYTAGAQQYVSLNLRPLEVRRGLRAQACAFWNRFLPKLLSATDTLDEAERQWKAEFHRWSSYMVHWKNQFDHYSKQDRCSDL
Description: Inhibition of bovine erythrocyte AChE by Ellman's reaction

The target of data set [2] is Cholinesterase (Equus caballus, UniProt P81908).
Description: Inhibition of horse serum BChE by Ellman's reaction
Data set [3] can be described thus: Permeability by PAMPA method. Type of data set: ADME. The following applies: read-out: permeability. For orientation: The PAMPA barrier holds no transporters, so it reflects passive diffusion.
Data set [4] deals with Cholinesterase (Homo sapiens, UniProt P06276).
Description: Inhibition of human serum BChE by Ellman's reaction
Data set [5] has as its target Acetylcholinesterase (Homo sapiens, UniProt P22303).
Description: Inhibition of human erythrocyte AChE by Ellman's reaction
Data set [6] has as its system SH-SY5Y. The experiment in a line: Neuroprotective activity against rotenone-induced cell death in human SH-SY5Y cells assessed as lactate dehydrogenase release at 3 uM after 24 hrs. The class given is functional.
The nature of data set [7]: Metal chelating activity assessed as formation of copper complex in Tris buffer at pH 7.4 at 22.5 uM after 1 min by UV-vis spectrometry. Type of data set: functional.
Data set [8] in a line: Metal chelating activity assessed as formation of copper complex in Tris buffer at pH 7.4 at 22.5 uM by UV-vis spectrometry. The class given is functional.
The subject of data set [9] is SH-SY5Y. The data set is described as follows: Cytotoxicity against human SH-SY5Y cells assessed as lactate dehydrogenase release at 3 uM after 24 hrs. Type of data set: cell-based.
Data set [10] in a line: Metal chelating activity assessed as formation of iron complex in Tris buffer at pH 7.4 at 22.5 uM after 30 mins by UV-vis spectrometry. Type of data set: functional.

Molecules are shown by their SMILES. Active and inactive are the calls of the source. The calls are words filed in the database; no cut-off is given here.

Acetylcholinesterase (Homo sapiens, UniProt P22303), sequence (P22303 whole entry): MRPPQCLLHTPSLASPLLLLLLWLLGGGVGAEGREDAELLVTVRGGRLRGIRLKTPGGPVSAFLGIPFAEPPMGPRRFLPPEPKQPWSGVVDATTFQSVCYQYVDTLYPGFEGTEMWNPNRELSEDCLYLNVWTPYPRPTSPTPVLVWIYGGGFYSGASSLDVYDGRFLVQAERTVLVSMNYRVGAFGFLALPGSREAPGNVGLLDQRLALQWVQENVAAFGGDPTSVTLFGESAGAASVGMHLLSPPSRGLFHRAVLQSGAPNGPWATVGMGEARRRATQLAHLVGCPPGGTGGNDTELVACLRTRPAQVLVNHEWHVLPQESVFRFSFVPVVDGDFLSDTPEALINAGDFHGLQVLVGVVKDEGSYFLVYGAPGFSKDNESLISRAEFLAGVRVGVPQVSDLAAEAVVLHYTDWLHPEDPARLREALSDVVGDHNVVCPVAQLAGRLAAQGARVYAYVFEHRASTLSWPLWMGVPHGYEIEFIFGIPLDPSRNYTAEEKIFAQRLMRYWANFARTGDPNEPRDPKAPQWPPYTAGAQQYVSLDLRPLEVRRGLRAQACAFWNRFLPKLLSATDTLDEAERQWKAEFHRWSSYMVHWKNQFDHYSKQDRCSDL
Cholinesterase (Equus caballus, UniProt P81908), sequence (P81908 whole entry, the tested form may be a part): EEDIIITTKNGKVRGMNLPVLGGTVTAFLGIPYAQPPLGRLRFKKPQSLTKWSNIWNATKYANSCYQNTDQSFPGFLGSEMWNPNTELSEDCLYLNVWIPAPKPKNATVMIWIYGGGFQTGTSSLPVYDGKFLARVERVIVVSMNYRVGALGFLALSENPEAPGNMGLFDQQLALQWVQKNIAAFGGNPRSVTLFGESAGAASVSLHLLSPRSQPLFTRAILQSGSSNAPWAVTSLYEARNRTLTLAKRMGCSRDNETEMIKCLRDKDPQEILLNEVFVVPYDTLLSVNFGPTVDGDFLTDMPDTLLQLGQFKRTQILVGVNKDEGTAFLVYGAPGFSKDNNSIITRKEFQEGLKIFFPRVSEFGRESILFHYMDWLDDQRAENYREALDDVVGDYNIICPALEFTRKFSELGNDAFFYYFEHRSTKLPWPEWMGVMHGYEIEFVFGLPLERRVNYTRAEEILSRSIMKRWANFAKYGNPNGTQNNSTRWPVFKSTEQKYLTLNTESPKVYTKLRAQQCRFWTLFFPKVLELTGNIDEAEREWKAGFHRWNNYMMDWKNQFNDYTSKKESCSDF
Cholinesterase (Homo sapiens, UniProt P06276), sequence (P06276 whole entry): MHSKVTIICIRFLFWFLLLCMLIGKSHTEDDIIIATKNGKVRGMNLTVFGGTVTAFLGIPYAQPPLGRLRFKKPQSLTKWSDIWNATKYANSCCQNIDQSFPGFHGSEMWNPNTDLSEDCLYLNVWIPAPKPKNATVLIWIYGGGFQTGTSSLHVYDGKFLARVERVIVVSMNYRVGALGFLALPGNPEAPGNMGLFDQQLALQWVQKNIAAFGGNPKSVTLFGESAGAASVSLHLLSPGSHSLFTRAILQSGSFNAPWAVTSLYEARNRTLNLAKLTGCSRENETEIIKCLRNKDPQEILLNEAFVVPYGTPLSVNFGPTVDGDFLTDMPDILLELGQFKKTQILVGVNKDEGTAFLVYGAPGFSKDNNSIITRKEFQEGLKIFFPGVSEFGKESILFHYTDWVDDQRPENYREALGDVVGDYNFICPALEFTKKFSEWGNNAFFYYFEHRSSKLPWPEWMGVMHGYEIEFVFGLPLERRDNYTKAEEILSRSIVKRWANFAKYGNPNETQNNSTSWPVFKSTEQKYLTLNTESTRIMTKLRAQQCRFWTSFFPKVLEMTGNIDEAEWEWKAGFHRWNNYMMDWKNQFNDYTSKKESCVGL

As for `Cc1ccc2ccc(CNCCCN(C)CCCNc3c4c(nc5ccccc35)CCCC4)c(O)c2n1`, 200 nM corresponded to half-maximal inhibition in data set [1] (IC50).

For `Oc1c(CNCCCCCCCCCCNc2c3c(nc4ccccc24)CCCC3)ccc2cccnc12`, the half-maximal inhibitory concentration (IC50) (commonly the concentration that inhibits the measured activity by half) in data set [2] amounted to 65 nM; in [1], 50 nM.

In turn, `Oc1c(CNCCCCCCNc2c3c(nc4ccccc24)CCCC3)ccc2cccnc12` displayed a half-maximal inhibitory concentration (IC50) in data set [1] of 200 nM.

Compound `Oc1c(CNCCCCCCCCNc2c3c(nc4ccccc24)CCCC3)cc(Cl)c2cccnc12` gave a half-maximal inhibitory concentration (IC50) in data set [1] of 150 nM.

For the compound `Cc1ccc2ccc(CNCCCCCCCCCNc3c4c(nc5ccccc35)CCCC4)c(O)c2n1`, the IC50 in data set [1] stood at 100 nM.

Consider `Oc1c(CNCCCCCCCCNc2c3c(nc4ccccc24)CCCC3)ccc2cccnc12`, for which the IC50 in data set [2] is 30 nM; in [1], 90 nM.

For the compound `Cc1ccc2ccc(CNCCCCCCCCNc3c4c(nc5ccccc35)CCCC4)c(O)c2n1.Cl.Cl`, the Papp in [3] was 14.1 ×10⁻⁶ cm/s. The 50% inhibitory concentration (IC50) in data set [4] came to 6.5 nM; in data set [5], 0.5 nM; in [2] it was 2 nM; in data set [1], 75 nM.

In data set [1], `Oc1c(CNCCCCCCCCCCCCNc2c3c(nc4ccccc24)CCCC3)ccc2cccnc12` returned a half-inhibitory concentration (IC50) of 250 nM. That is a sub-micromolar value.

For the compound `CN(CCCNCc1ccc2cccnc2c1O)CCCNc1c2c(nc3ccccc13)CCCC2`, the concentration for half-maximal inhibition (IC50) in [2] stood at 50 nM; in [1] it was 80 nM.

Regarding `Cl.Cl.Oc1c(CNCCCCCCCCCNc2c3c(nc4ccccc24)CCCC3)ccc2cccnc12`, the Activity in [6] was 30%; in data set [9], “Toxic”. Also, the outcome in data set [7] and in [10] was inactive. Besides, the result in data set [8] was Active. The Papp in [3] was determined as 17.4 ×10⁻⁶ cm/s. The half-maximal inhibitory concentration (IC50) in [4] amounted to 20 nM; in data set [5] it was 5.5 nM; in [2], 5 nM; in [1] it was 20 nM.

With `Oc1c(CNCCCCCCCNc2c3c(nc4ccccc24)CCCC3)ccc2cccnc12`, the half-maximal inhibitory concentration (IC50) was 150 nM in [2] and 25 nM in data set [1].

Regarding `Oc1c(CNCCCCCCCCCCNc2c3c(nc4ccccc24)CCCC3)cc(Cl)c2cccnc12`, inhibition in data set [1] was half-maximal at 100 nM (IC50).

Take `Cl.Cl.Cl.Oc1c(CNCCCCCCCCCNc2c3c(nc4ccccc24)CCCC3)cc(Cl)c2cccnc12`: in data set [3], the Papp was 10 ×10⁻⁶ cm/s. In addition, the IC50 in [4] stood at 55 nM; in data set [5] it was 1 nM; in data set [2], 6.5 nM; in data set [1], 85 nM.

For `Cc1ccc2ccc(CNCCCCCCCNc3c4c(nc5ccccc35)CCCC4)c(O)c2n1`, in [1], the IC50 was 200 nM.

Consider `Cc1ccc2ccc(CNCCCCCCCCCCNc3c4c(nc5ccccc35)CCCC4)c(O)c2n1`, for which the concentration for half-maximal inhibition (IC50) is 7 nM in [2] and 70 nM in data set [1].

Turning to `Oc1cccc2cccnc12` [OXYQUINOLINE], the IC50 in data set [4] and in data set [5] was more than 100 nM in each case.

Turning to `Oc1c(CNCCCCCCCCCCCCNc2c3c(nc4ccccc24)CCCC3)cc(Cl)c2cccnc12`, in [1], it took 400 nM to reach half-maximal inhibition (IC50).

On to `CN(CCCNCc1cc(Cl)c2cccnc2c1O)CCCNc1c2c(nc3ccccc13)CCCC2`, for which the figures for the half-inhibitory concentration (IC50) in [2] and in data set [1] were 30 nM and 90 nM, respectively.
